Assay results: patent US6709830B2, “Methods for modulating the activation of a lymphocyte expressed G protein coupled receptor involved in cell proliferation, autoimmunity and inflammation” (The Regents of the University of California, priority 1997, dated 2004)
Entries after “also recorded” stand apart in the source; their conditions may differ.

What was measured:
CHO GFP cells = test: ERK MAP kinase assay in control CHO GFP cells; type: cell-based, Chinese hamster; settings: serum starved CHO GFP cells, LPC 0.01 μM to 10 μM, 10 minutes
Method: (§1) Further exploration of the cellular response to LPC was undertaken in Chinese hamster ovary (CHO) cells. Stable lines of G2A expressing CHO cells were derived by infection with retroviruses encoding G2A.GFP (MSCV G2A.GFP). We examined ERK MAP kinase activity in control CHO GFP and CHO G2A.GFP cells in response to varying doses of LPC (0.01 μM to 10 μM).
(§2) CHO GFP or CHO G2A.GFP cells were serum starved for 18 hours prior to treatment with LPC for 10 minutes at 37° C. Western blotting was performed to detect activated p44/42 ERK MAP kinase using a specific phospho-ERK antibody (Santa Cruz Biotechnology,).

G2A.GFP fusion receptor = biological target: T1, G2A.GFP fusion receptor (Mus musculus, UniProt Q9Z282); test: Internalisation of G2A.GFP in HEK 293 G2A.GFP cells (confocal microscopy); type: cell-based; settings: 2 hours, serum starved HEK 293 G2A.GFP cells
T1 construct: expressed in transfected cells; host or cells: HEK 293 cells infected with amphotropic MSCV G2A.GFP retrovirus
T1 sequence (Q9Z282 1-382): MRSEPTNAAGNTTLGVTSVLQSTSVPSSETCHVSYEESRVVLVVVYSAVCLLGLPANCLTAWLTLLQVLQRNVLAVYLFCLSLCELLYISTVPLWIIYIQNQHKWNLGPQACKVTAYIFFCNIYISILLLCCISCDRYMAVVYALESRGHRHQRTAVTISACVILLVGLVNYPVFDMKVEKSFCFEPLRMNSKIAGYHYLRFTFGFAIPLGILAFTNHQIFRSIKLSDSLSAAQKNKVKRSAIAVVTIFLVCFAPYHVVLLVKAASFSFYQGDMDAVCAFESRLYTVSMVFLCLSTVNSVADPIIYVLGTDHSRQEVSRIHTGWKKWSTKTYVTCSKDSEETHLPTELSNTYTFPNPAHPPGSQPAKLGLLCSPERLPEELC
Method: Agonist dependent receptor internalisation is a feature of GPCRs. G2A.GFP expressing HEK 293 cells (HEK 293 G2A.GFP) were generated by infection with amphotropic MSCV G2A.GFP retroviruses. In serum starved HEK 293 G2A.GFP cells, G2A.GFP is expressed predominantly on the plasma membrane. LPC (0.1 μM), as well as SPC (1 μM), induced internalisation of G2A.GFP in over 90% of cells (FIG. 6). Neither LPA, S-1-P or PAF induced G2A internalisation, which is consistent with LPC acting as a specific ligand for G2A. Treatment of HEK 293 G2A.GFP cells with SPC at low concentrations (0.1 μM) induced receptor internalisation in fewer cells (<50%).
HEK 293 G2A.GFP cells were seeded onto glass coverslips and subsequently serum starved for 16-24 hours prior to treatment with lipids. Two hours following lipid treatment, coverslips were washed with cold PBS and fixed with PBS/4% paraformaldehyde. Subcellular localisation of G2A.GFP was visualised under a confocal fluorescence microscope with a 60× oil immersion lens.

MCF 10A cells = test: Calcium assay ([Ca2+]i, Fura-2) in parental or pEXV3 GFP transfected MCF 10A cells (control); type: cell-based, human; settings: SPC or LPC up to 10 μM, LPA 1 μM, PAF 0.1 μM, ATP 20 μM
Method: (§3) MCF 10A cells were cultured in specialised glass-bottom dishes (Bioptech, Inc., Butler, Pa.) and loaded with Fura-2/AM ([…]; Molecular Probes) at 37° C. for 30 minutes in HEPES buffered saline (pH 7.4) containing 125 mM NaCl, 5 mM KCl, 1.2 mM MgSO4, 11 mM glucose, 1.8 mM CaCl2, 25 mM HEPES, 0.2% BSA. Loaded cells were washed, placed in HEPES buffeted saline without BSA, and incubated for 30 minutes at ambient temperature ensure dye hydrolysis by cytosolic esterases. Using a dual-wavelength spectrofluorometer (RFK-6002, Photon Technology Int'l, So. Brunswick, N.J.) coupled to an inverted fluorescence microscope (Olympus, IX-70, Lake Success, N.Y.), GFP-positive cells were identified using an excitation wavelength of 488 nm, a dichroic 505 nm long-pass and an emitter bandpass of 535 nm (Chroma Technology, Brattleboro, Vt.). [Ca^2+], measurements were performed on individual GFP-positive cells at excitation wavelengths of 340 nm and 380 nm, and an emission wavelength of 510 nm. Prior to data acquisition, background fluorescence (areas without cells) was measured and automatically subtracted from subsequent measurements. Agonists were diluted in HEPES buffered saline and solution changes accomplished by rapidly aspirating the buffer and replacing it with HEPES buffered saline containing the specific agonist. Fura-2 fluorescence signals (340 nm, 380 nm and the 340/380 ratio) originating from individual GFP-positive cells were continuously monitored at a sampling frequency of 25 Hz and collected using a software package from Photon Technology International (Felix™). Conversion of the 340 nm/380 nm ratio value into [Ca^2+]i was estimated by comparing the cellular fluorescence ratio with ratios acquired using Fura-2 (free acid) in buffers containing known Ca^2+ concentrations. [Ca^2+]i was then calculated as described by Grynkiewicz, et al (Grynkiewicz, G, et al, J Biol Chem, 260: pp3440-3450, 1985). All assays were performed in assay buffers containing 1 mM EGTA to exclude measurement of calcium influx.
(§4) To address whether G2A is a lysophospholipid receptor, we examined signalling events in cells ectopically expressing G2A as functional correlates of receptor activation. […] [Ca^2+]i measurements were performed in MCF 10A cells transfected with plasmids encoding green fluorescent protein (GFP) tagged G2A (pEXV3 G2A.GFP) (Kabarowski, J H S, et al, PNAS, 97: pp12109-12114, 2000) or GFP as described (Yan Xu and Derek S. Damron, Methods in Molecular Medicine, 39: Ovarian Cancer: Methods and Protocols, pp611-619, 2000). […] Similarly, dose-dependent responses of G2A.GFP transfected cells to SPC were observed, with an EC50 of approximately 0.4 μM (FIG. 4B). […] Responses to these agonists were not affected by G2A.GFP expression (FIG. 4A, middle and lower panels).

G2A [1] = biological target: T2, G2A (Mus musculus, UniProt Q9Z282); test: Calcium assay ([Ca2+]i, Fura-2) in G2A.GFP transfected MCF 10A cells; type: cell-based
T2 construct: expressed in transfected cells; host or cells: MCF 10A (human breast epithelial cells, no endogenous G2A), plasmid pEXV3 G2A.GFP
T2 sequence (Q9Z282 1-382): T1 sequence (Q9Z282 1-382)
Method: as §3, §4

G2A [2] = biological target: T2, G2A; test: ERK MAP kinase assay (phospho-ERK Western blot) in CHO G2A.GFP cells; type: cell-based; settings: serum starved CHO G2A.GFP cells, LPC 0.01 μM to 10 μM, 10 minutes
Method: as §1, §2

lysophosphatidylcholine [LPC]
ERK MAP kinase activity in control cells (CHO GFP cells): did not respond | induction of G2A internalisation (G2A.GFP fusion receptor): internalisation of G2A.GFP induced by LPC | [Ca2+]i response in control cells (MCF 10A cells): Neither parental or pEXV3 GFP transfected cells responded | EC50 (G2A [1]; G2A.GFP transfected MCF 10A cells, 1 mM EGTA in buffer, read-out: EC50 of dose-dependent increase in [Ca2+]i): ~100 nM | transient increase in [Ca2+]i (G2A [1]; G2A.GFP transfected MCF 10A cells, LPC 0.1 μM, SPC 0.1 μM, LPA 1 μM, PAF 0.1 μM, ATP 20 μM): induced a transient increase; also recorded: induce transient [Ca^2+], increases | desensitisation to subsequent stimulation with LPC or SPC (1 μM) (G2A [1]; pretreatment 5 minutes with LPC 1 μM or SPC 10 μM (b23 prints SPC 1.0 μM), G2A.GFP-transfected MCF 10A cells): induced homologous and heterologous desensitisation | ERK MAP kinase activity (G2A [2]): dose-dependent increases; also recorded: activates ERK MAP kinase
